Our source for the IC50 values is patent US11091478B2 (Fochon Pharmaceuticals, Ltd., priority 2017, dated 2021).

One assay relates to DOHH2 cells. Nature of the assay: Cell proliferation assay (MTS), DOHH2 cells, 120 h. It is filed as cell-based. The following applies: Homo sapiens, DOHH-2, 120 h. The procedure, abridged: (§1)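 Cells in RPMI-1640 with 10% FBS were seeded at 5000/well, left overnight at 37° C., 5% CO2, then exposed to compound at 10000 down to 1.5 nM (nine concentrations) for 72 h (RS4;11) or 120 h (DOHH2). Viability was read by MTS, 2 h, absorbance at 490/650 nm; IC50 calculated.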

The next assay concerns RS4;11 cells. Nature of the assay: Cell proliferation assay (MTS), RS4;11 cells, 72 h. It counts as cell-based. The following applies: Homo sapiens, RS4-11, 72 h. The procedure, abridged:
as §1

Turning to `CC1(C)CCC(CN2CCN(c3ccc(C(=O)NS(=O)(=O)c4cc5c(c([N+](=O)[O-])c4)N[C@H](CC(=O)N4CCOCC4)CO5)c(Oc4cnc5[nH]ccc5c4)c3)CC2)=C(c2ccc(Cl)cc2)C1` [Example 2-143, (R)-2-((1H-pyrrolo[2,3-b]pyridin-5-yl)oxy)-4-(4-((4′-chloro-5,5-dimethyl-3,4,5,6-tetra-hydro-[1,1′-biphenyl]-2-yl)methyl)piperazin-1-yl)-N-((3-(2-morpholino-2-oxoethyl)-5-nitro-3,4-dihydro-2H-benzo[b][1,4]oxazin-7-yl)sulfonyl)benzamide], the IC50 with DOHH2 cells and in the assay on RS4;11 cells was 35 nM in each case.
On to `CC1(C)CCC(CN2CCN(c3ccc(C(=O)NS(=O)(=O)c4cc5c(c([N+](=O)[O-])c4)N[C@@H](CN4CCN(C6COC6)CC4)CO5)c(Oc4cnc5[nH]ccc5c4)c3)CC2)=C(c2ccc(Cl)cc2)C1` [Example 2-28, (S)-2-((1H-pyrrolo[2,3-b]pyridin-5-yl)oxy)-4-(4-((4′-chloro-5,5-dimethyl-3,4,5,6-tetra-hydro-[1,1′-biphenyl]-2-yl)methyl)piperazin-1-yl)-N-((5-nitro-3-((4-(oxetan-3-yl)piper-azin-1-yl)methyl)-3,4-dihydro-2H-benzo[b] [1,4]oxazin-7-yl)sulfonyl)benzamide], for which the half-maximal inhibitory concentration (IC50) in the assay with DOHH2 cells and in the assay on RS4;11 cells was 1 nM throughout.
Regarding `CC1(C)CCC(CN2CCN(c3ccc(C(=O)NS(=O)(=O)c4cc5c(c([N+](=O)[O-])c4)N[C@H](CCN=S4(=O)CCCC4)CO5)c(Oc4cnc5[nH]ccc5c4)c3)CC2)=C(c2ccc(Cl)cc2)C1` [Example 2-73, (R)-2-((1H-pyrrolo[2,3-b]pyridin-5-yl)oxy)-4-(4-((4′-chloro-5,5-dimethyl-3,4,5,6-tetra-hydro-[1,1′-biphenyl]-2-yl)methyl)piperazin-1-yl)-N-((5-nitro-3-(2-((1-oxidotetrahydro-1λ^6-thiophen-1-ylidene)amino)ethyl)-3,4-dihydro-2H-benzo[b][1,4]oxazin-7-yl)sulfonyl)benzamide], the IC50 with DOHH2 cells was found to be 69 nM; in the assay on RS4;11 cells it was 79 nM.
On to `COc1ccc([C@H]2COc3cc(S(=O)(=O)NC(=O)c4ccc(N5CCN(CC6=C(c7ccc(Cl)cc7)CC(C)(C)CC6)CC5)cc4Oc4cnc5[nH]ccc5c4)cc([N+](=O)[O-])c3N2)cc1` [Example 2-176, (S)-2-((1H-pyrrolo[2,3-b]pyridin-5-yl)oxy)-4-(4-((4′-chloro-5,5-dimethyl-3,4,5,6-tetra-hydro-[1,1′-biphenyl]-2-yl)methyl)piperazin-1-yl)-N-((3-(4-methoxyphenyl)-5-nitro-3,4-dihydro-2H-benzo[b][1,4]oxazin-7-yl)sul-fonyl)benzamide], for which the IC50 with DOHH2 cells is 547 nM; with RS4;11 cells it was 64 nM.
For `CC1(C)CCC(CN2CCN(c3ccc(C(=O)NS(=O)(=O)c4cc5c(c([N+](=O)[O-])c4)N[C@@H](Cc4ccc(S(C)(=O)=O)cn4)CO5)c(Oc4cnc5[nH]ccc5c4)c3)CC2)=C(c2ccc(Cl)cc2)C1` [Example 2-192, (S)-2-((1H-pyrrolo[2,3-b]pyridin-5-yl)oxy)-4-(4-((4′-chloro-5,5-dimethyl-3,4,5,6-tetra-hydro-[1,1′-biphenyl]-2-yl)methyl)piperazin-1-yl)-N-((3-((5-(methylsulfonyl)pyridin-2-yl)methyl)-5-nitro-3,4-dihydro-2H-benzo [b][1,4]oxazin-7-yl)sulfonyl)benzamide], in that order: 143 nM and 5 nM.
Turning to `COC(=O)C[C@@H]1Cc2cc(S(=O)(=O)NC(=O)c3ccc(N4CCN(CC5=C(c6ccc(Cl)cc6)CC(C)(C)CC5)CC4)cc3Oc3cnc4[nH]ccc4c3)cc([N+](=O)[O-])c2N1` [Example 1-22, methyl (S)-2-(5-(N-(2-((1H-pyrrolo[2,3-b]pyridin-5-yl)oxy)-4-(4-((4′-chloro-5,5-dimethyl-3,4,5,6-tetrahydro-[1,1′-biphenyl]-2-yl)methyl)piperazin-1-yl)benzoyl)sulfamoyl)-7-nitro-indolin-2-yl)acetate], the values for the IC50 in the assay on DOHH2 cells and with RS4;11 cells were 175 nM and 47 nM, respectively.
For `CC(C)[C@@H]1COc2cc(S(=O)(=O)NC(=O)c3ccc(N4CCN(CC5=C(c6ccc(Cl)cc6)CC(C)(C)CC5)CC4)cc3Oc3cnc4[nH]ccc4c3)cc([N+](=O)[O-])c2N1` [Example 2-108, (R)-2-((1H-pyrrolo[2,3-b]pyridin-5-yl)oxy)-4-(4-((4′-chloro-5,5-dimethyl-3,4,5,6-tetra-hydro-[1,1′-biphenyl]-2-yl)methyl)piperazin-1-yl)-N-((3-isopropyl-5-nitro-3,4-dihydro-2H-benzo[b][1,4]oxazin-7-yl)sulfonyl) benzamide], the IC50 worked out at 51 nM with DOHH2 cells and 16 nM in the assay on RS4;11 cells.
The matching figures for `CC1(C)CCC(CN2CCN(c3ccc(C(=O)NS(=O)(=O)c4cc5c(c([N+](=O)[O-])c4)N[C@H](CNS(=O)(=O)C4CCOCC4)CO5)c(Oc4cnc5[nH]ccc5c4)c3)CC2)=C(c2ccc(Cl)cc2)C1` [Example 2-139, (R)-2-((1H-pyrolo[2,3-b]pyridin-5-yl)oxy)-4-(4-((4′-chloro-5,5-dimethyl-3,4,5,6-tetra-hydro-[1,1′-biphenyl]-2-yl)methyl)piperazin-1-yl)-N-((5-nitro-3-(((tetrahydro-2H-pyran)-4-sulfonamido)methyl)-3,4-dihdyro-2H-benzo[b][1,4]oxazin-7-yl)sulfonyl)benzamide]: 338 nM and 88 nM.
For `CC1(C)CCC(CN2CCN(c3ccc(C(=O)NS(=O)(=O)c4cc5c(c([N+](=O)[O-])c4)N[C@@H](C4CC4)CO5)c(Oc4cnc5[nH]ccc5c4)c3)CC2)=C(c2ccc(Cl)cc2)C1` [Example 2-114, (S)-2-((1H-pyrrolo[2,3-b]pyridin-5-yl)oxy)-4-(4-((4′-chloro-5,5-dimethyl-3,4,5,6-tetra-hydro-[1,1′-biphenyl]-2-yl)methyl)piperazin-1-yl)-N-((3-cyclopropyl-5-nitro-3,4-di-hydro-2H-benzo[b][1,4]oxazin-7-yl)sulfonyl)benzamide], the IC50 was 48 nM with DOHH2 cells and 1 nM with RS4;11 cells.
For `CC1(C)CCC(CN2CCN(c3ccc(C(=O)NS(=O)(=O)c4cc5c(c([N+](=O)[O-])c4)N[C@H](CN4CCOCC4)CO5)c(Oc4cnc5[nH]ccc5c4)c3)CC2)=C(c2ccc(Cl)cc2)C1` [Example 2-5, (R)-2-((1H-pyrrolo[2,3-b]pyridin-5-yl)oxy)-4-(4-((4′-chloro-5,5-dimethyl-3,4,5,6-tetra-hydro-[1,1′-biphenyl]-2-yl)methyl)piperazin-1-yl)-N-((3-(morpholinomethyl)-5-nitro-3,4-dihydro-2H-benzo[b][1,4]oxazin-7-yl)sulfonyl)benzamide], in that order: 12 nM and 3 nM.
The matching figures for `COCC[C@@H]1COc2cc(S(=O)(=O)NC(=O)c3ccc(N4CCN(CC5=C(c6ccc(Cl)cc6)CC(C)(C)CC5)CC4)cc3Oc3cnc4[nH]ccc4c3)cc([N+](=O)[O-])c2N1` [Example 2-65, (R)-2-((1H-pyrrolo[2,3-b]pyridin-5-yl)oxy)-4-(4-((4′-chloro-5,5-dimethyl-3,4,5,6-tetra-hydro-[1,1′-biphenyl]-2-yl)methyl)piperazin-1-yl)-N-((3-(2-methoxyethyl)-5-nitro-3,4-dihydro-2H-benzo[b][1,4]oxazin-7-yl)sulfonyl)benzamide]: 14 nM and 20 nM.
For `CC1(C)CCC(CN2CCN(c3ccc(C(=O)NS(=O)(=O)c4cc5c(c([N+](=O)[O-])c4)N[C@@H](C4CCOCC4)CO5)c(Oc4cnc5[nH]ccc5c4)c3)CC2)=C(c2ccc(Cl)cc2)C1` [Example 2-187, (S)-2-((1H-pyrrolo[2,3-b]pyridin-5-yl)oxy)-4-(4-((4′-chloro-5,5-dimethyl-3,4,5,6-tetra-hydro-[1,1′-biphenyl]-2-yl)methyl)piperazin-1-yl)-N-((5-nitro-3-(tetrahydro-2H-pyran-4-yl)-3,4-dihydro-2H-benzo[b][1,4]oxazin-7-yl)sulfonyl)benzamide], in that order: 14 nM and 2 nM.
Take `COC(=O)N=S1(=O)CCN(CC[C@@H]2COc3cc(S(=O)(=O)NC(=O)c4ccc(N5CCN(CC6=C(c7ccc(Cl)cc7)CC(C)(C)CC6)CC5)cc4Oc4cnc5[nH]ccc5c4)cc([N+](=O)[O-])c3N2)CC1` [Example 2-130, methyl (R)-(4-(2-(7-(N-(2-((1H-pyrrolo[2,3-b]pyri-din-5-yl)oxy)-4-(4-((4′-chloro-5,5-dimethyl-3,4,5,6-tetrahydro-[1,1′-biphenyl]-2-yl)meth-yl)piperazin-1-yl)benzoyl)sulfamoyl)-5-nitro-3,4-dihydro-2H-benzo[b][1,4]oxazin-3-yl)ethyl)-1-oxido-1λ^6-thiomorpholin-1-ylidene)carbamate]: the IC50 in the assay on DOHH2 cells came out at 26 nM; in the assay with RS4;11 cells it was 14 nM.
The matching figures for `CC1(C)CCC(CN2CCN(c3ccc(C(=O)NS(=O)(=O)c4cc5c(c([N+](=O)[O-])c4)N[C@H](CN4C[C@@H]6C[C@H]4CO6)CO5)c(Oc4cnc5[nH]ccc5c4)c3)CC2)=C(c2ccc(Cl)cc2)C1` [Example 2-82, 2-((1H-pyrrolo[2,3-b]pyridin-5-yl)oxy)-N-(((R)-3-(((1S,4S)-2-oxa-5-azabicyclo[2.2.1]heptan-5-yl)methyl)-5-nitro-3,4-dihydro-2H-benzo[b][1,4]oxazin-7-yl)sulfonyl)-4-(4-((4′-chloro-5,5-dimethyl-3,4,5,6-tetrahydro-[1,1′-biphenyl]-2-yl)methyl)piperazin-1-yl) benzamide]: 9 nM and 1 nM.
For `CN1CCN(CC[C@@H]2Cc3cc(S(=O)(=O)NC(=O)c4ccc(N5CCN(CC6=C(c7ccc(Cl)cc7)CC(C)(C)CC6)CC5)cc4Oc4cnc5[nH]ccc5c4)cc([N+](=O)[O-])c3N2)CC1` [Example 1-12, (S)-2-((1H-pyrrolo[2,3-b]pyridin-5-yl)oxy)-4-(4-((4′-chloro-5,5-dimethyl-3,4,5,6-tetra-hydro-[1,1′-biphenyl]-2-yl)methyl)piperazin-1-yl)-N-((2-(2-(4-methylpiperazin-1-yl)eth-yl)-7-nitroindolin-5-yl)sulfonyl)benzamide], in that order: 299 nM and 58 nM.

As usually defined, the IC50 is the concentration at which inhibition is half-maximal. A higher IC50 goes with weaker potency.
